Test results taken from patent US20120202856A1, “SUBSTITUTED BENZIMDAZOLE DERIVATIVES USEFUL AS TRPM8 RECEPTOR MODULATORS” (priority 2011, published 2012).
“And” between values parts separate entries of the source, which are not always exact repeats. Equal values may be shown once. Where a name gives a salt, the structure may show the parent alone. Read-outs that look alike come from different tables or passages of the source.

Molecular target: T1, canine TRPM8 (Canis lupus familiaris, UniProt Q1A7N1)
T1 construct: expressed in transfected cells
Experiment: In Vitro Canine TRPM8 Functional Assay (intracellular Ca2+ fluorescence, icilin activation, HEK293 cells)
Type: cell-based
Conditions: for IC50: HEK293 cells expressing canine TRPM8, icilin activation, individually measured values (batches/salt forms), read-out: IC50 (nM), in vitro TRP M8 Activity
Method in brief: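 Inhibition of icilin-evoked calcium influx measured by Calcium 3 fluorescence (FLIPR or FDSS) in canine TRPM8 HEK293 cells. After basal subtraction, data expressed as percent of maximum; quadruplicate means fitted by sigmoidal dose–response to give IC50.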

[1] = HEK293, 0.2 μM test compound, individually measured values, read-out: % Inh (%) @0.2 μM, in vitro TRP M8 Activity

T1 sequence (Q1A7N1 1-1104): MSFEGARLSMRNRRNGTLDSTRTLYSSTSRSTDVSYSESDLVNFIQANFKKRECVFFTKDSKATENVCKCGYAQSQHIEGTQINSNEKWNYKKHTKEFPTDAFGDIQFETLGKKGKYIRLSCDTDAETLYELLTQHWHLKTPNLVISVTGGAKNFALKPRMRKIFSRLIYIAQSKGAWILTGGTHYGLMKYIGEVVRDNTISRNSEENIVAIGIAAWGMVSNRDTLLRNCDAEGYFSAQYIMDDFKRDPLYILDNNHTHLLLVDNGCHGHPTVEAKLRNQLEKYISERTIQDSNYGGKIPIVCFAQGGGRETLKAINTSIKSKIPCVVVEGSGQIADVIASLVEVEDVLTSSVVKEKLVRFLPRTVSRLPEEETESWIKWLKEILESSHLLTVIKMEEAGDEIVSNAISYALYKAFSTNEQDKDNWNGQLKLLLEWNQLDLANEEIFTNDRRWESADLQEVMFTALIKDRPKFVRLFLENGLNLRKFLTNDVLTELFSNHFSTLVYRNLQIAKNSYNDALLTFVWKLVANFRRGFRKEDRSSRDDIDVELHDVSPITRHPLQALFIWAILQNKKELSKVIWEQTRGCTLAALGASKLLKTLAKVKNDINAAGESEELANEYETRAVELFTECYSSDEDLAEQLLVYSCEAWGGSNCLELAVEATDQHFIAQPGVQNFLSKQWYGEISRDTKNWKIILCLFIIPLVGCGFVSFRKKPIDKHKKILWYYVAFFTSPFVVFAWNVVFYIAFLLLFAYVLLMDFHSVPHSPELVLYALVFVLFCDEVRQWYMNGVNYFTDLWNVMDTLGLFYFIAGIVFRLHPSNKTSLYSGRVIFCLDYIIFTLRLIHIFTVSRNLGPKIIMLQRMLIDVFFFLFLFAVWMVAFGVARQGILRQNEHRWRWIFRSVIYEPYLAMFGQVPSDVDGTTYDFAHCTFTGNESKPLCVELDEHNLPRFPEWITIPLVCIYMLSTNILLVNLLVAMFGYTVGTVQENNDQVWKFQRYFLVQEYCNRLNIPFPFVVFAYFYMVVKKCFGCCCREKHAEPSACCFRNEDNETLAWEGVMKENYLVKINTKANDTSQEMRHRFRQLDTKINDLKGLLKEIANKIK

Structure (SMILES) | IC50 | inhibition at 0.2 µM [1] | % Inh (%) @0.2 μM, in vitro TRP M8 Activity (0.2 μM test compound, individually measured values, sodium salt, 0.2 µM) | inhibition at 0.2 µM (HEK293, read-out: % Inh (%) @0.2 μM, in vitro TRP M8 Activity, 0.2 μM test compound, individually measured values)
Cc1c(C(C)(C)C)nn(C)c1-c1nc2cc(-c3c(F)cccc3OC(F)(F)F)ccc2[nH]1 [Compound 96, 2-(5-tert-Butyl-2,4-dimethyl-2H-pyrazol-3-yl)-5-(2-fluoro-6-trifluoromethoxy-phenyl)-1H-benzimidazole hydrochloride] | 6.6 nM |  |  | 
Cc1c(C(C)(C)C)nn(C)c1-c1nc2cc(-c3c(C(F)(F)F)cccc3C(F)(F)F)ccc2[nH]1 [Compound 97, 5-(2,6-Bis-trifluoromethyl-phenyl)-2-(5-tert-butyl-2,4-dimethyl-2H-pyrazol-3-yl)-1H-benzimidazole hydrochloride] | 6.9 nM |  |  | 
CC(C)(C)c1ncc(-c2nc3cc(-c4ccccc4C(F)(F)F)ccc3[nH]2)s1 [Compound 100, 2-(2-tert-Butyl-thiazol-5-yl)-5-(2-trifluoromethyl-phenyl)-1H-benzimidazole hydrochloride] | 33.7 nM | 91% |  | 
CC(CO)n1nc(C(C)(C)C)cc1-c1nc2cc(-c3ccccc3C(F)(F)F)ccc2[nH]1 (stereo not drawn) [Compound 101, 2-{3-tert-Butyl-5-[5-(2-trifluoromethylphenyl)-1H-benzimidazol-2-yl]-pyrazol-1-yl}-propan-1-ol hydrochloride] |  | 33% |  | 
CC(C)(C)c1cc(-c2nc3cc(-c4ccccc4C(F)(F)F)ccc3[nH]2)n(CCO)n1 [Compound 102, 2-{3-tert-Butyl-5-[5-(2-trifluoromethylphenyl)-1H-benzimidazol-2-yl]-pyrazol-1-yl}-ethanol hydrochloride] | 54.4 nM |  |  | 
CC(C)(C)c1cc(-c2nc3cc(-c4c(F)cccc4OC(F)(F)F)ccc3[nH]2)on1 [Compound 103, 2-(3-tert-Butyl-isoxazol-5-yl)-5-(2-fluoro-6-trifluoromethoxy-phenyl)-1H-benzimidazole hydrochloride] | 4.5 nM |  |  | 
CC(C)(C)c1cc(-c2nc3cc(-c4c(C(F)(F)F)cccc4C(F)(F)F)ccc3[nH]2)on1 [Compound 104, 5-(2,6-Bis-trifluoromethyl-phenyl)-2-(3-tert-butyl-isoxazol-5-yl)-1H-benzimidazole hydrochloride] | 3.9 nM |  |  | 
COc1ccc(F)cc1-c1ccc2[nH]c(-c3cc(C(C)(C)C)no3)nc2c1 [Compound 105, 2-(3-tert-Butyl-isoxazol-5-yl)-5-(5-fluoro-2-methoxy-phenyl)-1H-benzimidazole hydrochloride] | 16.4 nM |  |  | 
Cc1c(C(C)(C)C)noc1-c1nc2cc(-c3ccccc3F)ccc2[nH]1 [Compound 106, 2-(3-tert-Butyl-4-methyl-isoxazol-5-yl)-5-(2-fluoro-phenyl)-1H-benzimidazole hydrochloride] | 21.8 nM |  |  | 
Cc1c(C(C)(C)C)noc1-c1nc2cc(-c3ccccc3Cl)ccc2[nH]1 [Compound 107, 2-(3-tert-Butyl-4-methyl-isoxazol-5-yl)-5-(2-chloro-phenyl)-1H-benzimidazole hydrochloride] | 11.9 nM |  |  | 
Cc1c(C(C)(C)C)noc1-c1nc2cc(-c3ccccc3C(F)(F)F)ccc2[nH]1 [Compound 108, 2-(3-tert-Butyl-4-methyl-isoxazol-5-yl)-5-(2-trifluoromethyl-phenyl)-1H-benzimidazole hydrochloride] | 10.2 nM |  |  | 
Cc1c(C(C)(C)C)noc1-c1nc2cc(-c3c(F)cccc3F)ccc2[nH]1 [Compound 109, 2-(3-tert-Butyl-4-methyl-isoxazol-5-yl)-5-(2,6-difluoro-phenyl)-1H-benzimidazole hydrochloride] | 13.9 nM |  |  | 
Cc1c(C(C)(C)C)noc1-c1nc2cc(-c3c(F)cccc3OC(F)(F)F)ccc2[nH]1 [Compound 110, 2-(3-tert-Butyl-4-methyl-isoxazol-5-yl)-5-(2-fluoro-6-trifluoromethoxy-phenyl)-1H-benzimidazole hydrochloride] | 14.3 nM |  |  | 
Cc1c(C(C)(C)C)noc1-c1nc2cc(-c3c(F)cccc3C(F)(F)F)ccc2[nH]1 [Compound 111, 2-(3-tert-Butyl-4-methyl-isoxazol-5-yl)-5-(2-fluoro-6-trifluoromethyl-phenyl)-1H-benzimidazole hydrochloride] | 10.1 nM |  |  | 
Cl.Cn1nc(C(C)(C)C)c(Cl)c1-c1nc2cc(-c3ccccc3F)cc(Cl)c2[nH]1 [Compound 114, 2-(5-tert-Butyl-4-chloro-2-methyl-2H-pyrazol-3-yl)-7-chloro-5-(2-fluoro-phenyl)-1H-benzimidazole sodium salt] | 4.7 nM and 10.3 nM and 10.2 nM | 99% | 100% | 
Cc1c(C(C)(C)C)nn(C)c1-c1nc2cc(-c3ccccc3F)cc(C(F)(F)F)c2[nH]1 [Compound 118, 2-(5-tert-Butyl-2,4-dimethyl-2H-pyrazol-3-yl)-5-(2-fluoro-phenyl)-7-trifluoromethyl-1H-benzimidazole hydrochloride] | 9.6 nM |  |  | 

Structure (SMILES) | IC50 | inhibition at 0.2 µM [1] | % Inh (%) @0.2 μM, in vitro TRP M8 Activity (0.2 μM test compound, individually measured values, sodium salt, 0.2 µM) | inhibition at 0.2 µM (HEK293, read-out: % Inh (%) @0.2 μM, in vitro TRP M8 Activity, 0.2 μM test compound, individually measured values)
Cc1c(C(C)(C)C)nn(C)c1-c1nc2cc(-c3c(F)cccc3C(F)(F)F)cc(C(F)(F)F)c2[nH]1 [Compound 119, 2-(5-tert-Butyl-2,4-dimethyl-2H-pyrazol-3-yl)-5-(2-fluoro-6-trifluoromethyl-phenyl)-7-trifluoromethyl-1H-benzimidazole hydrochloride] | 2 nM |  |  | 
Cc1c(C(C)(C)C)nn(C)c1-c1nc2cc(-c3ccccc3Cl)cc(C(F)(F)F)c2[nH]1 [Compound 121, 2-(5-tert-Butyl-2,4-dimethyl-2H-pyrazol-3-yl)-5-(2-chloro-phenyl)-7-trifluoromethyl-1H-benzimidazole hydrochloride] | 3.1 nM |  |  | 
Cc1c(C(C)(C)C)nn(C)c1-c1nc2cc(-c3c(F)cccc3F)cc(C(F)(F)F)c2[nH]1 [Compound 122, 2-(5-tert-Butyl-2,4-dimethyl-2H-pyrazol-3-yl)-5-(2,6-difluoro-phenyl)-7-trifluoromethyl-1H-benzimidazole hydrochloride] | 5.5 nM |  |  | 
Cc1c(C(C)(C)C)nn(C)c1-c1nc2cc(-c3c(F)cccc3OC(F)(F)F)cc(C(F)(F)F)c2[nH]1 [Compound 123, 2-(5-tert-Butyl-2,4-dimethyl-2H-pyrazol-3-yl)-5-(2-fluoro-6-trifluoromethoxy-phenyl)-7-trifluoromethyl-1H-benzimidazole hydrochloride] | 7.9 nM |  |  | 
Cn1nc(C(C)(C)C)c(Cl)c1-c1nc2cc(-c3c(F)cccc3F)cc(C(F)(F)F)c2[nH]1 [Compound 124, 2-(5-tert-Butyl-4-chloro-2-methyl-2H-pyrazol-3-yl)-5-(2,6-difluoro-phenyl)-7-trifluoromethyl-1H-benzimidazole hydrochloride] | 7.3 nM and 4.4 nM | 99% |  | 
Cn1nc(C(C)(C)C)c(Cl)c1-c1nc2cc(-c3c(F)cccc3OC(F)(F)F)cc(C(F)(F)F)c2[nH]1 [Compound 126, 2-(5-tert-Butyl-4-chloro-2-methyl-2H-pyrazol-3-yl)-5-(2-fluoro-6-trifluoromethoxy-phenyl)-7-trifluoromethyl-1H-benzimidazole hydrochloride] | 3.9 nM and 3.5 nM | 99% |  | 
Cn1nc(C(C)(C)C)c(Cl)c1-c1nc2cc(-c3ccccc3F)cc(C(F)(F)F)c2[nH]1 [Compound 127, 2-(5-tert-Butyl-4-chloro-2-methyl-2H-pyrazol-3-yl)-5-(2-fluoro-phenyl)-7-trifluoromethyl-1H-benzimidazole hydrochloride] | 11.5 nM and 6.3 nM | 99% |  | 
Cn1nc(C(C)(C)C)c(Cl)c1-c1nc2cc(-c3ccccc3Cl)cc(C(F)(F)F)c2[nH]1 [Compound 128, 2-(5-tert-Butyl-4-chloro-2-methyl-2H-pyrazol-3-yl)-5-(2-chloro-phenyl)-7-trifluoromethyl-1H-benzimidazole sodium salt] | 2.7 nM and 5.1 nM | 99% |  | 
Cn1nc(C(C)(C)C)c(Cl)c1-c1nc2cc(-c3ccccc3C(F)(F)F)cc(C(F)(F)F)c2[nH]1 [Compound 129, 2-(5-tert-Butyl-4-chloro-2-methyl-2H-pyrazol-3-yl)-7-trifluoromethyl-5-(2-trifluoromethyl-phenyl)-1H-benzimidazole hydrochloride] | 6.2 nM and 4.1 nM | 99% |  | 
Cn1nc2c(c1-c1nc3cc(-c4ccccc4F)ccc3[nH]1)CCC2(C)C [Compound 131] | 42 nM | 100% |  | 
Cc1c(C(C)(C)C)nn(C)c1-c1nc2cc(-c3ccccc3Cl)cc(Cl)c2[nH]1 [Compound 134, 2-(5-tert-Butyl-2,4-dimethyl-2H-pyrazol-3-yl)-7-chloro-5-(2-chloro-phenyl)-1H-benzimidazole hydrochloride] | 5.6 nM and 10.9 nM | 99% |  | 
Cc1c(C(C)(C)C)nn(C)c1-c1nc2cc(-c3ccccc3C(F)(F)F)cc(Cl)c2[nH]1 [Compound 135, 2-(5-tert-Butyl-2,4-dimethyl-2H-pyrazol-3-yl)-7-chloro-5-(2-trifluoromethyl-phenyl)-1H-benzimidazole hydrochloride] | 4 nM and 6.9 nM | 99% |  | 
Cc1c(C(C)(C)C)nn(C)c1-c1nc2cc(-c3c(F)cccc3C(F)(F)F)cc(Cl)c2[nH]1 [Compound 137, 2-(5-tert-Butyl-2,4-dimethyl-2H-pyrazol-3-yl)-7-chloro-5-(2-fluoro-6-trifluoromethyl-phenyl)-1H-benzimidazole hydrochloride] | 3 nM and 4.7 nM | 99% |  | 
Cc1c(C(C)(C)C)nn(C)c1-c1nc2cc(-c3c(F)cccc3OC(F)(F)F)cc(Cl)c2[nH]1 [Compound 138, 2-(5-tert-Butyl-2,4-dimethyl-2H-pyrazol-3-yl)-7-chloro-5-(2-fluoro-6-trifluoromethoxy-phenyl)-1H-benzimidazole hydrochloride] | 7.7 nM and 6.8 nM | 99% |  | 
CC(C)(C)c1cc(-c2nc3cc(-c4ccccc4F)cc(C(F)(F)F)c3[nH]2)on1 [Compound 139, 2-(3-tert-Butyl-isoxazol-5-yl)-5-(2-fluoro-phenyl)-7-trifluoromethyl-1H-benzimidazole sodium salt] | 5.6 nM and 12 nM |  |  | 99%
